Data published in patent publication US6358885B1, “Substituted phenylheterocyclic herbicides” (Mississippi State University, priority 1992, dated 2002).

Assays:
[1] = tested on: barnyardgrass; experiment: Test D paddy water application plant response rating 0 to 100; type: in vivo, Echinochloa crus-galli; details: approx. 21 days
Source text: (§1) Plastic pots were partially filled with silt loam soil. The soil was then saturated with water. […] After planting, water levels were raised to 3 cm above the soil surface and maintained at this level throughout the test. Chemical treatments were formulated in a non-phytotoxic solvent and applied directly to the paddy water. Treated plants and controls were maintained in a greenhouse for approximately 21 days, after which all species were compared to controls and visually evaluated. […] A dash (-) response means no test result.

[2] = tested on: arrowhead; experiment: as above; type: in vivo, Sagittaria spp.; details: approx. 21 days
Source text: as §1

[3] = tested on: Japonica rice; experiment: Test E paddy water application plant response rating 0 to 100; type: in vivo, oryza sativa; details: Flood, 0 to 100 scale, approx. 21 days
Source text: (§2) Plastic pots were partially filled with silt loam soil. […] At testing, the water level for all plantings was raised to 2 cm above the soil surface. Chemical treatments were formulated in a non-phytotoxic solvent and applied directly to the paddy water. Treated plants and controls were maintained in a greenhouse for approximately 21 days, after which all species were compared to controls and visually evaluated. […] A dash (-) response means no test result.

[4] = tested on: Japonica rice; experiment: Test D paddy water application plant response rating 0 to 100; type: in vivo, Oryza sativa; details: approx. 21 days
Source text: as §1

[5] = tested on: waterchestnut; experiment: as above; type: in vivo, Eleocharis spp.; details: approx. 21 days
Source text: as §1

[6] = tested on: duck salad; experiment: as above; type: in vivo, Heteranthera limosa; details: approx. 21 days
Source text: as §1

[7] = tested on: barnyardgrass; experiment: Test E paddy water application plant response rating 0 to 100; type: in vivo, Echinochloa crus-galli; details: Flood, 0 to 100 scale, approx. 21 days
Source text: as §2

[8] = tested on: umbrella sedge; experiment: Test D paddy water application plant response rating 0 to 100; type: in vivo, Cyperus difformis; details: approx. 21 days
Source text: as §1

[9] = Rate 500 g/ha, 0 to 100 scale (0 no effect, 100 complete control)

## Fc1cc(Cl)ccc1-c1nn2c(c1Br)CCCC2 [Compound 52]
[1]; Rate 32 g/ha, 0 to 100 scale
  Barnyardgrass 2 plant response rating: 100
[1]; Rate 64 g/ha, 0 to 100 scale
  Barnyardgrass 2 plant response rating: 100
[1]; Rate 125 g/ha, 0 to 100 scale
  Barnyardgrass 2 plant response rating: 100
[1]; Rate 250 g/ha, 0 to 100 scale
  Barnyardgrass 2 plant response rating: 100
[1]; [9]
  Barnyardgrass 2 plant response rating: 100
[2]; Rate 32 g/ha, 0 to 100 scale
  Arrowhead plant response rating: 10
[2]; Rate 64 g/ha, 0 to 100 scale
  Arrowhead plant response rating: 10
[2]; Rate 125 g/ha, 0 to 100 scale
  Arrowhead plant response rating: 40
[2]; Rate 250 g/ha, 0 to 100 scale
  Arrowhead plant response rating: 30
[2]; [9]
  Arrowhead plant response rating: 40
[3]; Rate 8 g/ha
  Japonica 1 plant response rating: 0
  Japonica 2 plant response rating: 10
[3]; Rate 16 g/ha
  Japonica 1 plant response rating: 10
  Japonica 2 plant response rating: 15
[3]; Rate 32 g/ha
  Japonica 1 plant response rating: 20
  Japonica 2 plant response rating: 20
[3]; Rate 64 g/ha
  Japonica 1 plant response rating: 35
  Japonica 2 plant response rating: 25
[3]; Rate 125 g/ha
  Japonica 1 plant response rating: 55
  Japonica 2 plant response rating: 40
[4]; Rate 32 g/ha, 0 to 100 scale
  Japonica rice plant response rating: 20
[4]; Rate 64 g/ha, 0 to 100 scale
  Japonica rice plant response rating: 20
[4]; Rate 125 g/ha, 0 to 100 scale
  Japonica rice plant response rating: 25
[4]; Rate 250 g/ha, 0 to 100 scale
  Japonica rice plant response rating: 25
[4]; [9]
  Japonica rice plant response rating: 30
[5]; Rate 32 g/ha, 0 to 100 scale
  Waterchestnut plant response rating: 0
[5]; Rate 64 g/ha, 0 to 100 scale
  Waterchestnut plant response rating: 15
[5]; Rate 125 g/ha, 0 to 100 scale
  Waterchestnut plant response rating: 25
[5]; Rate 250 g/ha, 0 to 100 scale
  Waterchestnut plant response rating: 40
[5]; [9]
  Waterchestnut plant response rating: 65
[6]; Rate 32 g/ha, 0 to 100 scale
  Duck salad plant response rating: 0
[6]; Rate 64 g/ha, 0 to 100 scale
  Duck salad plant response rating: 10
[6]; Rate 125 g/ha, 0 to 100 scale
  Duck salad plant response rating: 80
[6]; Rate 250 g/ha, 0 to 100 scale
  Duck salad plant response rating: 80
[6]; [9]
  Duck salad plant response rating: 100
[7]; Rate 8 g/ha
  Barnyardgrass 2 plant response rating: 40
  Barnyardgrass 3 plant response rating: 35
[7]; Rate 16 g/ha
  Barnyardgrass 2 plant response rating: 45
  Barnyardgrass 3 plant response rating: 55
[7]; Rate 32 g/ha
  Barnyardgrass 2 plant response rating: 100
  Barnyardgrass 3 plant response rating: 65
[7]; Rate 64 g/ha
  Barnyardgrass 2 plant response rating: 100
  Barnyardgrass 3 plant response rating: 100
[7]; Rate 125 g/ha
  Barnyardgrass 2 plant response rating: 100
  Barnyardgrass 3 plant response rating: 100
[8]; Rate 32 g/ha, 0 to 100 scale
  Umbrella sedge plant response rating: 0
[8]; Rate 64 g/ha, 0 to 100 scale
  Umbrella sedge plant response rating: 0
[8]; Rate 125 g/ha, 0 to 100 scale
  Umbrella sedge plant response rating: 20
[8]; Rate 250 g/ha, 0 to 100 scale
  Umbrella sedge plant response rating: 50
[8]; [9]
  Umbrella sedge plant response rating: 80

## COCN1C(=O)COc2cc(F)c(-c3nn4c(c3Cl)CCCC4)cc21 [Compound 55]
[1]; Rate 4 g/ha, 0 to 100 scale
  Barnyardgrass 2 plant response rating: 0
[1]; Rate 8 g/ha, 0 to 100 scale
  Barnyardgrass 2 plant response rating: 0
[1]; Rate 16 g/ha, 0 to 100 scale
  Barnyardgrass 2 plant response rating: 10
[1]; Rate 32 g/ha, 0 to 100 scale
  Barnyardgrass 2 plant response rating: 40
[1]; Rate 64 g/ha, 0 to 100 scale
  Barnyardgrass 2 plant response rating: 100
[2]; Rate 4 g/ha, 0 to 100 scale
  Arrowhead plant response rating: 0
[2]; Rate 8 g/ha, 0 to 100 scale
  Arrowhead plant response rating: 0
[2]; Rate 16 g/ha, 0 to 100 scale
  Arrowhead plant response rating: 20
[2]; Rate 32 g/ha, 0 to 100 scale
  Arrowhead plant response rating: 20
[2]; Rate 64 g/ha, 0 to 100 scale
  Arrowhead plant response rating: 30
[3]; Rate 8 g/ha
  Japonica 1 plant response rating: 25
  Japonica 2 plant response rating: 15
[3]; Rate 16 g/ha
  Japonica 1 plant response rating: 75
  Japonica 2 plant response rating: 20
[3]; Rate 32 g/ha
  Japonica 1 plant response rating: 85
  Japonica 2 plant response rating: 25
[3]; Rate 64 g/ha
  Japonica 1 plant response rating: 98
  Japonica 2 plant response rating: 35
[4]; Rate 4 g/ha, 0 to 100 scale
  Japonica rice plant response rating: 10
[4]; Rate 8 g/ha, 0 to 100 scale
  Japonica rice plant response rating: 10
[4]; Rate 16 g/ha, 0 to 100 scale
  Japonica rice plant response rating: 20
[4]; Rate 32 g/ha, 0 to 100 scale
  Japonica rice plant response rating: 25
[4]; Rate 64 g/ha, 0 to 100 scale
  Japonica rice plant response rating: 25
[5]; Rate 4 g/ha, 0 to 100 scale
  Waterchestnut plant response rating: 0
[5]; Rate 8 g/ha, 0 to 100 scale
  Waterchestnut plant response rating: 0
[5]; Rate 16 g/ha, 0 to 100 scale
  Waterchestnut plant response rating: 10
[5]; Rate 32 g/ha, 0 to 100 scale
  Waterchestnut plant response rating: 15
[5]; Rate 64 g/ha, 0 to 100 scale
  Waterchestnut plant response rating: 20
[6]; Rate 4 g/ha, 0 to 100 scale
  Duck salad plant response rating: 0
[6]; Rate 8 g/ha, 0 to 100 scale
  Duck salad plant response rating: 0
[6]; Rate 16 g/ha, 0 to 100 scale
  Duck salad plant response rating: 0
[6]; Rate 32 g/ha, 0 to 100 scale
  Duck salad plant response rating: 0
[6]; Rate 64 g/ha, 0 to 100 scale
  Duck salad plant response rating: 10
[7]; Rate 8 g/ha
  Barnyardgrass 2 plant response rating: 15
  Barnyardgrass 3 plant response rating: 20
[7]; Rate 16 g/ha
  Barnyardgrass 2 plant response rating: 70
  Barnyardgrass 3 plant response rating: 40
[7]; Rate 32 g/ha
  Barnyardgrass 2 plant response rating: 80
  Barnyardgrass 3 plant response rating: 50
[7]; Rate 64 g/ha
  Barnyardgrass 2 plant response rating: 100
  Barnyardgrass 3 plant response rating: 75
[8]; Rate 4 g/ha, 0 to 100 scale
  Umbrella sedge plant response rating: 0
[8]; Rate 8 g/ha, 0 to 100 scale
  Umbrella sedge plant response rating: 0
[8]; Rate 16 g/ha, 0 to 100 scale
  Umbrella sedge plant response rating: 20
[8]; Rate 32 g/ha, 0 to 100 scale
  Umbrella sedge plant response rating: 80
[8]; Rate 64 g/ha, 0 to 100 scale
  Umbrella sedge plant response rating: 80
